The results in this text go back to paper PMC4457932, “Characterization of Spirometra erinaceieuropaei Plerocercoid Cysteine Protease and Potential Application for Serodiagnosis of Sparganosis” (PLoS Neglected Tropical Diseases, 2015).

Residues, ends and D or L forms follow the SMILES beside them. *: point of attachment. AMC = Cc1cc(=O)oc2cc(N*)ccc12; Cbz = O=C(OCc1ccccc1)*

Experiment [1] has as its target T1, rSeCP (Spirometra erinaceieuropaei, UniProt O02586).
T1 construct: MBP fusion (pMAL-c2X, E. coli TB1), 19-residue signal peptide omitted, proform 36 kDa plus MBP 43 kDa, 79 kDa, tag kept; full-length ORF 336 residues
The experiment in a line: fluorogenic peptidase assay, Z-Phe-Arg-AMC. Format: biochemical. An excerpt: fluorogenic peptidase assay, Z-Phe-Arg-AMC on rSeCP

Experiment [2] deals with T1, rSeCP. The experiment in a line: AMC fluorescence, […] nm. The class given is biochemical. The following applies: 3 μM substrate, 100 mM sodium acetate, 5 mM DTT, pH 5.5, 37°C.

T1 sequence (O02586 entry or part of it): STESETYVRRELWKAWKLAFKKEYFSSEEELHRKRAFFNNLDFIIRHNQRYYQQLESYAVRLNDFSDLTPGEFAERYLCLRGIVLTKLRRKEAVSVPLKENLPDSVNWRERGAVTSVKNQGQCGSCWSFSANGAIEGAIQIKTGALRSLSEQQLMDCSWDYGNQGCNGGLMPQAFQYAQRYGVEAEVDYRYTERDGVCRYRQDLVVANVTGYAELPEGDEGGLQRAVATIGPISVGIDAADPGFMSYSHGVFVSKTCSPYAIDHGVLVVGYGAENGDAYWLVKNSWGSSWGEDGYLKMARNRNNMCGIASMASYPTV

Take `CC(C)C[C@H](NC(=O)[C@H]1O[C@@H]1C(=O)O)C(=O)NCCCCN=C(N)N` [E-64, L-trans-epoxysuccinyl-leucylamide (4-guanidino) butane]: at rSeCP [1], the activity at 5 µM came out at 0.8%. For `Cc1cc(=O)oc2cc(NC(=O)[C@H](CCCNC(=N)N)NC(=O)[C@H](Cc3ccccc3)NC(=O)OCc3ccccc3)ccc12` [Z-Phe-Arg-AMC, Z-carbobenzoxy-L-phenylalanyl-L-arginine-(7-amino-4-methylcoumarin)] (Cbz-Phe-Arg-{AMC}), on rSeCP [2], the “AMC fluorescence, 355/460 nm” value is on record as “determined by cleavage of the fluorescent substrate Z-carbobenzoxy-L-phenylalanyl-L-arginine-(7-amino-4-methylcoumarin) (Z-Phe-Arg-AMC, Sigma)”.
